Assay results published in ChEMBL document CHEMBL1201862, “PubChem BioAssay data set” (2004).
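Cultured in 96-well plates, cells were exposed to test compound for 48 hours across five concentrations. Abbreviation: GI50, concentration required for 50% inhibition of growth.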 Active and inactive are the calls of the source. Rule as the data show it: active = GI50 up to about 1.1 µM and inactive = higher.

What was measured:
Experiment in all cases: NCI anticancer screen, dose series, 48 h
MDA-MB-435 = system: MDA-MB-435
HL-60 = system: HL-60
T47D = system: T47D
SNB-19 = system: SNB-19
SW-620 = system: SW-620
SF-268 = system: SF-268
NCI/ADR-RES = system: NCI/ADR-RES
MDA-MB-231 = system: MDA-MB-231
IGROV-1 = system: IGROV-1
NCI-H226 = system: NCI-H226
NCI-H460 = system: NCI-H460
BT-549 = system: BT-549
HOP-62 = system: HOP-62
EKVX = system: EKVX
OVCAR-3 = system: OVCAR-3
LOX IMVI = system: LOX IMVI
RPMI-8226 = system: RPMI-8226
UACC-62 = system: UACC-62
SN12C = system: SN12C
HCT-15 = system: HCT-15
SK-MEL-28 = system: SK-MEL-28
HCT-116 = system: HCT-116
K562 = system: K562
M14 = system: M14
OVCAR-5 = system: OVCAR-5
NCI-H23 = system: NCI-H23
MDA-N = system: MDA-N
SNB-75 = system: SNB-75
Hs-578T = system: Hs-578T
CAKI-1 = system: CAKI-1
RXF 393 = system: RXF 393
OVCAR-8 = system: OVCAR-8
MCF7 = system: MCF7
MOLT-4 = system: MOLT-4
UO-31 = system: UO-31
SK-MEL-2 = system: SK-MEL-2
786-0 = system: 786-0
A549 = system: A549
ACHN = system: ACHN
Malme-3M = system: Malme-3M
TK-10 = system: TK-10
NCI-H522 = system: NCI-H522
KM12 = system: KM12
DU-145 = system: DU-145
HOP-92 = system: HOP-92
SK-MEL-5 = system: SK-MEL-5
UACC-257 = system: UACC-257
PC-3 = system: PC-3
SF-295 = system: SF-295
OVCAR-4 = system: OVCAR-4
A498 = system: A498
HT-29 = system: HT-29
SR = system: SR
SF-539 = system: SF-539
COLO 205 = system: COLO 205
SK-OV-3 = system: SK-OV-3
U-251 = system: U-251

## O=C(O)/C=C/C=C/c1ccc2c(c1)OCO2 [PIPERIC ACID]
MDA-MB-435
  GI50: > 100 µM (inactive)
HL-60
  GI50: > 100 µM (inactive)
T47D
  GI50: > 100 µM (inactive)
SNB-19
  GI50: > 100 µM (inactive)
SW-620
  GI50: > 100 µM (inactive)
SF-268
  GI50: > 100 µM (inactive)
NCI/ADR-RES
  GI50: > 100 µM (inactive)
MDA-MB-231
  GI50: > 100 µM (inactive)
IGROV-1
  GI50: > 100 µM (inactive)
NCI-H226
  GI50: > 100 µM (inactive)
NCI-H460
  GI50: > 100 µM (inactive)
BT-549
  GI50: > 100 µM (inactive)
HOP-62
  GI50: > 100 µM (inactive)
EKVX
  GI50: > 100 µM (inactive)
OVCAR-3
  GI50: > 100 µM (inactive)
LOX IMVI
  GI50: > 100 µM (inactive)
RPMI-8226
  GI50: > 100 µM (inactive)
UACC-62
  GI50: > 100 µM (inactive)
SN12C
  GI50: > 100 µM (inactive)
HCT-15
  GI50: > 100 µM
SK-MEL-28
  GI50: > 100 µM (inactive)
HCT-116
  GI50: > 100 µM (inactive)
K562
  GI50: > 100 µM (inactive)
M14
  GI50: > 100 µM (inactive)
OVCAR-5
  GI50: > 100 µM (inactive)
NCI-H23
  GI50: > 100 µM (inactive)
MDA-N
  GI50: > 100 µM (inactive)
SNB-75
  GI50: 36.6 µM (inactive)
Hs-578T
  GI50: 82.6 µM (inactive)
CAKI-1
  GI50: > 100 µM (inactive)
RXF 393
  GI50: > 100 µM (inactive)
OVCAR-8
  GI50: > 100 µM (inactive)
MCF7
  GI50: > 100 µM (inactive)
MOLT-4
  GI50: > 100 µM (inactive)
UO-31
  GI50: > 100 µM (inactive)
SK-MEL-2
  GI50: > 100 µM (inactive)
786-0
  GI50: > 100 µM (inactive)
A549
  GI50: > 100 µM (inactive)
ACHN
  GI50: > 100 µM (inactive)
Malme-3M
  GI50: > 100 µM (inactive)
TK-10
  GI50: > 100 µM (inactive)
NCI-H522
  GI50: > 100 µM (inactive)
KM12
  GI50: > 100 µM (inactive)
DU-145
  GI50: > 100 µM (inactive)
HOP-92
  GI50: > 100 µM (inactive)
SK-MEL-5
  GI50: 94.4 µM (inactive)
UACC-257
  GI50: > 100 µM (inactive)
PC-3
  GI50: > 100 µM (inactive)
SF-295
  GI50: > 100 µM (inactive)
OVCAR-4
  GI50: > 100 µM (inactive)
A498
  GI50: > 100 µM (inactive)
HT-29
  GI50: > 100 µM (inactive)
SR
  GI50: > 100 µM (inactive)
SF-539
  GI50: > 100 µM (inactive)
COLO 205
  GI50: > 100 µM (inactive)
SK-OV-3
  GI50: > 100 µM (inactive)
U-251
  GI50: > 100 µM (inactive)
